{
  "source": "patent US10378060B2",
  "about": "“ZNF365/ZFP365 biomarker predictive of anti-cancer response” (Dana-Farber Cancer Institute, Inc., priority 2011, dated 2019)",
  "key": {"U2OS cells": {"test_system": "U2OS cells", "assay": "53BP1-positive DNA damage foci (DSB) staining", "assay_type": "cell-based", "details": "ZNF365-deficient U2OS cells (shZNF-2 or shZNF-5), additional treatment with 1 μM ABT888", "description": "FIGS. 10A-10C show increased DNA double strand breaks (DSB) in ZNF365-deficient cells.\nU2OS cells infected with either a control scrambled shRNA (Scr) to establish the basal DSB levels or with either of two independent shRNA sequences targeting ZNF365 (shZNF-2 or shZNF-5) were scored for 53BP1-positive damage foci as an indicator of DSB (FIG. 10A; red highlighted dots indicates foci and dotted circles indicate nuclei). Quantification of the 53BP1-positive foci indicated increased numbers of DSB in ZNF365-deficient cells (FIG. 10B)."}, "[1]": {"test_system": "MCF7 breast cancer cell line", "assay": "MTT cell proliferation assay", "assay_type": "cell-based", "details": "MCF7 control (TR) vs shZNF cells, different doses of ABT888 for 48 hours with or without radiation (2 Gy)", "description": "Control cells of the MCF7 breast cancer cell line (TR), as well as MCF7 cells transfected with shRNAs targeting ZNF365 (shZNF) were treated with different doses of the PARP inhibitor, ABT888, for 48 hours with or without radiation (2 Gy). A standard MTT cell proliferation assay was performed to determine cell viability."}},
  "data": [
    {"compound": "C[C@]1(c2nc3c(C(N)=O)cccc3[nH]2)CCCN1", "note": "[ABT888]", "values": [
      {"measurement": "53BP1-positive DNA damage foci as an indicator of DSB", "setting": "U2OS cells", "result": "became more prominent"},
      {"measurement": "cell viability", "setting": "[1]", "result": "ZNF365 deficiency sensitizes cells"}
    ]}
  ]
}
